The source of these data is patent US20110039277A1, “Methods of Labeling Proteins” (priority 2008, published 2011).

The test system of one assay is Hsp60. Description: FRET by acceptor photobleaching between FITC-NN carbonyl label and Cy3 anti-Hsp60 antibody in cells. It counts as cell-based. The settings on record: rotenone-treated cells. The source says:
Anti-Hsp60 (Stressgen, used at 1:500) was conjugated with Cy3. The procedure can be carried out in a 96-well plate, which can be analyzed with a micro-plate spectrofluorometer. FRET between FITC-NN and a Cy3-labeled specific antibody can be studied to determine if the two fluorophores are in close proximity (<50 Å) and therefore if the protein of interest is oxidized. […] First, the acceptor fluorophore is photobleached over four cycles. In FIG. 3, Cy3 was the acceptor fluorophore and the protein of interest was Hsp60, where Cy3 conjugated with anti-Hsp60 antibody. Second, the emission of the acceptor fluorophore and of the donor fluorophore are determined and compared. If a significant increase in the donor emission is observed after photobleaching the acceptor fluorophore, then the two fluorophores are determined to be in close proximity. […] Therefore, the two fluorophores are in close proximity and indicate that the protein of interest, here Hsp60, is oxidized.

Assay [1] concerns mitochondrial proteins containing oxidized thiols. Kind of assay: Thiol-sepharose affinity purification of oxidized mitochondrial proteins from brain regions of rotenone-treated rats. The assay is classed as in vivo, Lewis rats. As to conditions: rotenone animals vs control. The source says:
Preparation of affinity resin. Activated thiol-sepharose resin 4B (Sigma, St. Louis, Mo., USA) was used in previous studies to purify thiol-containing proteins (Egorov, T. A.; Svenson, A.; Ryden, L.; Carlsson, J. A rapid and specific method for isolation of thiol-containing peptides from large proteins by thiol-disulfide exchange on a solid support. Proc Natl Acad Sci USA 72:3029-3033; 1975); the resin extent of binding was 1 micromol of thiols per mL of medium. The resin rehydrated in milliQ-grade distilled water, 30 minutes, gently shaking at 4° C. […]
In the first technique (FIG. 20), a starting sample (e.g., purified mitochondria from the ventral midbrain of control and rotenone-treated rats) is homogenized and then free thiols are alkylated. […] At this point, the sample can be run over a thiol affinity column and the eluate can be analyzed by SDS-PAGE and Coomassie staining. In an alternative strategy, after the reduction the sample can be reacted with ICAT (isotope coded affinity tag) reagents for mass spectrometry (Gygi, S P, Rist, B, Gerber, S A, Turecek, F, Gelb, M H and Aebersold, R, (1999) Quantitative analysis of complex protein mixtures using isotope-coded affinity tags. Nat Biotechnol 17: 994-9).

In assay [2] the test system is human neuroblastoma cells. Kind of assay: Fluorescent labeling of protein carbonyls (FITC-hydrazide) in rotenone-treated cells. It counts as cell-based. As to conditions: 50 nM rotenone, 24 hours, vs vehicle-treated cells. As to the method:
Cells are fixed in cold methanol for 10 minutes at −20° C. Paraformaldehyde and other […] group-containing (and therefore carbonyl group-containing) fixatives should be avoided. The method can be successfully applied to tissues as well.
Carbonyls are labeled with fluorescein-conjugated hydrazide (FITC-NN, FIG. 1, Molecular Probes, cat #F-121). F121 is prepared fresh in dimethyl-formamide. As the reaction between the hydrazine and the carbonyls occurs in acidic environment, the labeling is carried out in 50 mM sodium acetate (pH 4). FITC-NN is used 2 microM final; incubation is carried on 2 hours at room temperature.
Samples are washed in phosphate buffer solution (PBS) for 5 minutes; this step is repeated three times.
From this step onward, a classical immunohistochemistry staining can be performed to detect proteins of interest.
Images are acquired with a laser scanning confocal microscope.

Another assay has as its system substantia nigra. Description: Imaging of carbonyls in substantia nigra of rotenone-treated animals. It counts as in vivo. As to conditions: rotenone-treated animal vs control animal. The source says: To detect carbonyls in fixed slices and perform microscopy studies, fluorescein-conjugated hydrazine is used (FITC-hydrazine, please see FIG. 19). As a positive control, carbonyl formation is induced by metal-catalyzed oxidation, treating the samples with iron (Fe^3+) and ascorbate (Amici, A, Levine, R L, Tsai, L and Stadtman, E R, (1989) Conversion of amino acid residues in proteins and amino acid homopolymers to carbonyl derivatives by metal-catalyzed oxidation reactions. J Biol Chem 264: 3341-6 and Halliwell, B and Gutteridge, J M, (1990) Role of free radicals and catalytic metal ions in human disease: an overview. Methods Enzymol 186: 1-85). In the confocal studies, a negative control can be performed preincubating the fixed slices with an excess of DNPH.
Protein carbonyls. Another oxidative modification of proteins is carbonyl formation. Typically, carbonyls are assayed by reacting protein homogenates with hydrazine compounds (e.g., dinitrophenylhydrazine; DNPH) and then measuring the reaction product spectrophotometrically, or with antibody-based techniques. We have used a fluorescent hydrazine compound to directly label carbonyls (FIG. 19). As with thiol labeling, this technique is amenable to FRET so that candidate proteins can be examined for carbonyl content and changes therein in pesticide intoxication.

Another assay relates to dopaminergic neurons. Kind of assay: Tyrosine hydroxylase, transferrin and oxidized thiol imaging in dopaminergic neurons treated with rotenone. It counts as cell-based. As to conditions: cells treated with rotenone vs control.
The subject of assay [3] is dopaminergic neurons of the substantia nigra. Description: Histological labeling of oxidized thiols in substantia nigra of rotenone-treated rats. It counts as in vivo, Lewis rats. The settings on record: chronic rotenone treatment vs control animal. As to the method: (§1) Histological labeling of oxidized thiols. Brains were fixed in 4% paraformaldehyde and processed as described (Betarbet, R.; Sherer, T. B.; MacKenzie, G.; Garcia-Osuna, M.; Panov, A. V.; Greenamyre, J. T. Chronic systemic pesticide exposure reproduces features of Parkinson's disease. Nat Neurosci 3:1301-1306; 2000). After cutting with a freezing microtome, sections were treated immediately in alkylating buffer (100 mM IAM, 100 mM NEM, TrisHCl, pH 6.8) to block free thiols. For cell culture studies, cells were seeded and cultured on coverslips, then fixed in 4% paraformaldehyde, 0.02% Triton-X100 supplemented with 100 mM IAM, 100 mM NEM to block free thiols. After three washes in PBS—10 minutes at room temperature—disulfides were reduced with 25 mM TCEP in PBS for 20 minutes. TCEP was omitted in the control reaction. The samples were labeled with CPM (0.5 mM final) in TrisHCl (0.1 M, pH 6.8) and then washed three times, for 10 minutes, in PBS.
Following the thiol labeling, immunohistochemistry was performed according to standard procedures. Briefly, after a blocking step in 10% serum, samples were incubated over-night with primary antibody (tyrosine hydroxylase, Mab318, Chemicon, Temecula, Calif., 1:2000; OX42, MCA 275G AbD Serotec, Oxford, UK, 1:150; GFAP, Mab 3402, Chemicon, Temecula, Calif., 1:1000). Fluorescently labeled secondary antibodies were used for detection. […]

In another assay the test system is transferrin. Kind of assay: Reducing and non-reducing Western blots of transferrin in substantia nigra. The settings on record: chronic rotenone treatment vs control animal. It counts as in vivo. The source says: In the lower panel, left and right, a loading control (39 kDa subunit of mitochondrial complex I) ensures that the initial amount of protein was the equal for all the lanes.

Assay [4] has as its system SH-SY5Y human neuroblastoma cells. Kind of assay: Histochemical detection of oxidized thiols (disulfides) with CPM in cells. The assay is classed as cell-based. The settings on record: tBH 1 mM vs vehicle control. As to the method:
as §1
Images were acquired using a laser scanning confocal microscope. The microscope was equipped with a spectral detector technology that provides precise wavelength separation of the emitted light, preventing light leakage between different fluorophores. The following detection ranges were used for each fluorophore: 450 nm-480 nm for UV probes; 515 nm-535 nm for Alexa488; 560 nm-574 nm for Cy3. […]

The subject of assay [5] is thioredoxin-1 (trx-1). Description: Redox western blot (10 kDa PEG-maleimide) of thioredoxin-1 in cells. The assay is classed as cell-based. As to conditions: low millimolar concentrations of tBH. As to the method:
Western blot analysis to detect proteins with oxidized cysteines. Cells were lysed in alkylating buffer (0.1M TrisHCl pH 6.8, 1% SDS, 100 mM IAM, 100 mM NEM). The lysate was sonicated on ice to disrupt high molecular weight DNA and incubated 30 minutes at room temperature to allow total alkylation of free Cys residues. 200 μg of alkylated proteins were precipitated with 5 volumes of ice-cold acetone and resuspended in 50 microliters of Tris-SDS buffer (0.1M TrisHCl, pH 7.4, 1% SDS). Disulfides were reduced by adding TCEP 5 mM final concentration. The samples were incubated 20 minutes at room temperature to allow complete reduction of disulfides to thiols. TCEP was removed with Micro Bio-spin Chromatography columns 6 (BIORAD, Hercules, Calif.). After the filtration step, the samples were in about 50 μL of 10 mM TrisHCl pH 7.4 (volume was adjusted to 50 μL as necessary). SDS was added to a 1% final concentration.
To label the previously oxidized (and now reduced) cysteines, polyethylene-glycol-conjugated maleimide (molecular weight 10 kDa, SunBio, Orinda, Calif.) was added to 50 micrograms of proteins, 1 mM final concentration, from a 10 mM stock in Tris-SDS buffer. After 1 hour incubation at room temperature, samples were precipitated with ice cold acetone and resuspended in 50 μL of SDS electrophoresis loading buffer. 10 μL (about 10 μg) were used for western blot analysis. […]

The test system of assay [6] is thioredoxin-1 (trx-1). Kind of assay: FRET between thiol-bound CPM and Alexa488-labeled trx-1 antibody in cells. The assay is classed as cell-based. The settings on record: tBH-treated cells vs baseline. As to the method:
as §1, with “The samples were labeled with CPM (0.5 mM final) in TrisHCl (0.1 M, pH 6.8) and then washed three times, for 10 minutes, in PBS.” left out
Direct FRET was detected by reading the acceptor emission (FITC derivative conjugated antibody) at 520 nm while exciting the donor (CPM) with the 405 nm laser. Alternatively, FRET was detected by acquiring the donor (CPM) emission before and after photobleaching of the acceptor fluorophore (Alexa488) with the 488 nm laser. FRET efficiency (Feff) was calculated by the confocal software (version 1.5) according to the equation Feff=1−(empre/empost), where Feff=FRET efficiency, empre=donor emission prebleaching, empost=donor emission post bleaching.

“Also recorded” adds a separate entry of the source.

On to `C=C(C)[C@H]1Cc2c(ccc3c2O[C@@H]2COc4cc(OC)c(OC)cc4[C@@H]2C3=O)O1` [rotenone], for which the “FITC (donor) emission after photobleaching of Cy3 acceptor; indicates Hsp60 is oxidized” value with Hsp60 was “significant increase in FITC emission”. Moreover, in [1] (striata), the “oxidized mitochondrial proteins eluted from thiol affinity chromatography, striatum” value was “No major differences”. Moreover, the “oxidized mitochondrial proteins eluted from thiol affinity chromatography, substantia nigra” value in [1] (substantia nigra (ventral midbrain)) was “marked increase in thiol oxidation; also recorded: dramatic increase in oxidized proteins; also recorded: striking increase of oxidized proteins”. Also, in assay [2], the “carbonyls (green fluorescence)” value is listed as “detectable increase; also recorded: large increase in carbonyls”. Besides, the “carbonyls in substantia nigra” value in the assay with substantia nigra is listed as “marked increase in carbonyls”. Further, the “transferrin (trf) level, colocalized with oxidized thiols by FRET” value with dopaminergic neurons is “accumulation of transferrin”. The “oxidized thiols in nigrostriatal dopaminergic (TH-positive) neurons” value in assay [3] is “remarkable and very selective increase in oxidized thiols; also recorded: marked increase in oxidized thiols”. For the same compound, the “oxidized transferrin form in non-reducing gel” value in the assay with transferrin is recorded as “higher molecular weight form”.
As to `CC(C)(C)OO` [tBH, tert-butyl-hydroperoxide], in assay [4], the “oxidized thiols (disulfides) labeling” value is “remarkable increase in disulfides; also recorded: dramatic increase of thiol labeling”. Further, in the assay on thioredoxin-1 (trx-1) [5], the “thiol oxidation (disulfide formation) in trx-1 by redox western blot” value was “quickly induced the formation of disulfides in trx-1; also recorded: induced thiol oxidation in thioredoxin-1”. Besides, the “FRET between CPM and Alexa488 trx-1 antibody (thiol oxidation of Trx-1)” value in the assay on thioredoxin-1 (trx-1) [6] was “clear increase in the signal; also recorded: marked increase in direct FRET”.
